Experimental data taken from US20240277744A1, “TREATMENT OF CHEMORESISTANT CANCER CELLS” (Cornell University, priority 2023, published 2024).

What was measured:
[1] = system: SW1990 cells; test: Cell viability (DAPI nuclei count, high content imaging); format: cell-based; settings: Homo sapiens, SW1990, 72 h, read-out: IC50, viability
Description: (§1) Cell viability, colony formation, sphere formation and growth curve. To quantify viability, cells were plated into 96-well plates (6000/well) one night before treatment. […] After fixation, cell nuclei were stained with DAPI (Invitrogen). Plates were analyzed using MetaXpress High Content Image Acquisition and Analysis System (Molecular Devices).

[2] = system: SW1990GR cells; test: as above; format: cell-based; settings: 72 h, CYM 0-500 nM, 3 days, read-out: IC50, viability
Description: To establish GR cell lines, cells were first cultured with 10 nM GEM till cell growth became stable. […] Once cell growth became stable in 100 nM GEM, cells were expanded in 100 nM GEM and used in assays.
as §1

[3] = system: DU145 cell line; test: Flow cytometry of TRA-1-81+ cells; format: cell-based; settings: DU145, 25 nM CYM, 5 days
Description: (§2) Flow cytometry. TRA-1-60 PerCP-efluor710 (eBioscience, 1:50) and TRA-1-81 PE (eBioscience, 1:100) were used. Cells were blocked with 5% FBS plus mouse IgM isotype control antibody (eBioscience, 1:100) at room temperature for 15 min, then stained on ice for 30 min. Stained cells were resuspended in PBS containing 300 nM DAPI and proceeded to analysis or sorting. Cell apoptosis was analyzed with FITC-AnnexinV labeling reagent (BD). Flow cytometry analysis was carried out on BD FACS Calibur with FlowJo 9.8 software. Sorting was performed with FACSVantage SE (Becton Dickinson).

[4] = system: HCT116 cell line; test: Flow cytometry of TRA-1-81+ cells; format: cell-based; settings: HCT-116, 25 nM CYM, 5 days
Description: as §2

[5] = system: TRA-1-81+ SW1990 cells; test: Flow cytometry of TRA-1-81+ cells; format: cell-based
Description: as §2

[6] = system: TRA-1-81+ SW1990GR cells; test: Flow cytometry of TRA-1-81+ cells; format: cell-based
Description: as §2

[7] = system: UGT1A10 transcript in SW1990 cells; test: qRT-PCR of UGT1A10 expression; format: cell-based; settings: SW1990, CYM treatment
Description: (§3) qRT-PCR. Reverse transcription reaction was prepared with 0.5-2 μg total RNA using High Capacity cDNA Reverse Transcription Kit (Applied Biosystems). Products were diluted 10 folds with DNase&RNase free water as template. qPCR reactions were prepared with 2× LightCycler 480 SYBR Green I Master reagent (Roche) and proceeded in LightCycler 480 II (Roche) with software LightCycler 480 SW1.5.1 for signal acquisition and processing. ACTB was employed as internal reference. Primers were listed below: […]

[8] = system: UGT1A10 transcript in SW1990GR cells; test: qRT-PCR of UGT1A10 expression; format: cell-based
Description: as §3

[9] = system: hESCs; settings: cited from earlier work

Structure (SMILES): CO[C@H]1C[C@H](O[C@H]2CC[C@]3(C=O)[C@H]4CC[C@]5(C)[C@@H](C6=CC(=O)OC6)CC[C@]5(O)[C@@H]4CC[C@]3(O)C2)O[C@H](C)[C@H]1O [CYM, Cymarin]
- IC50 [1]: 33.8 ± 2.6 nM
- IC50 [2]: 40.8 ± 3.1 nM
- percentage of TRA-1-81+ cells [3]: decreased
- percentage of TRA-1-81+ cells [4]: decreased
- IC50 ([5]; Homo sapiens, SW1990, read-out: IC50, repression of TRA-1-81+ cells): 6.3 ± 2.2 nM
- TRA-1-81+ cells in time course ([5]; SW1990, 25 nM CYM): decrease of TRA-1-81^+ cells over time
- percentage of TRA-1-81+ cells with or without acute GEM ([5]; SW1990, 5 days, 25 nM CYM or 100 nM GEM plus 25 nM CYM): decreased the percentage of TRA-1-81^+ cells effectively regardless of GEM
- TRA-1-81+ cells in time course ([6]; 25 nM CYM): decrease of TRA-1-81^+ cells over time
- IC50 ([6]; flow cytometry, read-out: IC50, decrease of percentage of TRA-1-81+ cells): 5.1 ± 1.5 nM
- UGT1A10 transcript levels [7]: decreased
- expression of UGT1A10 in TRA-1-81+ and TRA-1-81− subpopulations ([8]; 25 nM CYM): significantly inhibits
- UGT1A10 transcript levels ([8]; CYM treatment): decreased
- effect on hESCs in a previous screen [9]: differentiation inducer of hESCs
